Results as given in US20190086391A1, “METHOD AND SYSTEM FOR CONTINUOUS BIOSENSING” (Yissum Research Development Company of the Hebrew …, priority 2016, published 2019).
Values joined by “and” are separate entries in the source; they are usually repeats but may differ in a detail not shown here. Equal entries are not always repeated.

Key:
Type in all cases: cell-based, human
HepG2/C3A cells [1] = assay: Real-time amperometric glucose and lactate measurements in bioreactor outflow; conditions: for total glucose uptake rate: 50 μM treated cells
Experimental: Amperometric glucose and lactate sensors were purchased from BioSensor Technology (Berlin, Germany) and embedded in a CNC-fabricated PMMA flow-chamber with an inner volume of 26 μl. The sensors are based on the enzymatic reactions of glucose oxidase, with a linear range of 0.5 mM to 30 mM, and lactate oxidase, with a linear range of 0.5 mM to 20 mM. Both sensors produce H2O2 in amounts proportional to the measured metabolite, which is detected with platinum electrodes under polarized condition. The microfluidic controller (13) was programmed to open a microfluidic valve every hour, allowing a 40 μl medium sample to flow through the switchboard and into the sensors unit. Amperometric measurement lasted 200 seconds and was followed by automated perfusion of PBS washing solution, CAL 4+M calibration buffer (Eschweiler, Germany), and 4 seconds of air bubble acting as a diffusion barrier between samples. Reading was carried out on EmStat3 OEM embedded potentiostat (PalmSens, Netherlands) connected to the central computer.
Glucose uptake, oxygen uptake and lactate production rates were measured by calculating the change in metabolite concentration between the bioreactor in- and outflow, as function of perfusion rate and cell number as described above. Metabolic rates were calculated assuming negligible contribution to oxygen uptake by fatty acid oxidation and enzymatic activity. Low level of lipids in the culture medium ensured that fatty acid uptake was 50-fold lower than glucose while glutamine contribution to the Krebs cycle was minor (results).

HepG2/C3A cells [2] = assay: Seahorse Mitochondrial Stress Test (OCR, ECAR), static culture; conditions: 50 μM; for decrease in maximal mitochondrial capacity: after uncoupler injection
Experimental: HepG2/C3A cells were plated in gelatin-coated SeaHorse XFp cell culture miniplates (Seahorse Bioscience, USA) and cultured for 24 hours. Subsequently, cultures were treated with medium containing 50 μM troglitazone for 6 hours, 50 μM rotenone for 3 hours, or vehicle control prior to initiation of assay. Mitochondrial Stress Test assay was conducted per manufacturer instructions (29). Briefly, cells were incubated in unbuffered XF Base Medium supplemented with 2 mM glutamine, 1 mM sodium pyruvate, and 10 mM glucose (pH 7.4) for 1 hour at 37° C. in a non-CO2 incubator. Basal oxygen consumption rate (OCR) was measured for 30 min, followed by injection of 1 μM oligomycin, a mitochondrial […] inhibitor that completely blocks oxidative phosphorylation. The decrease in OCR due to oligomycin treatment is defined as oxidative phosphorylation rate. 1 μM carbonyl cyanide-4 (trifluoromethoxy) phenylhydrazone (FCCP), an uncoupling agent, is added at 60 min to measure maximal mitochondrial activity followed by complete inhibition at 90 min using a mixture of 0.5 μM antimycin A and rotenone, mitochondrial Complex III and Complex I inhibitors. Basal extracellular acidification rates (ECAR) was measured for 30 min, in the presence of 10 mM glucose, followed by injection of 1 μM oligomycin. The increase in ECAR due to oligomycin treatment was defined as glycolytic capacity. Data are presented normalized to […] cells as determined by Hoechst DNA content assay.

HepG2/C3A cells [3] = assay: Seahorse glutamine oxidation assay; conditions: 50 μM, static culture
Experimental: HepG2/C3A cells were plated in gelatin-coated XFp cell culture miniplates and cultured for 24 hours. Subsequently, cultures were treated with medium containing 50 μM troglitazone for 6 hours, 50 μM rotenone for 3 hours, or vehicle control prior to initiation of assay. Glutamine oxidation assay was conducted per manufacturer instructions. Briefly, cells were incubated in unbuffered XF Base Medium supplemented with 2 mM Glutamine, 1 mM sodium pyruvate, and 10 mM glucose (pH 7.4) for 1 hour at 37° C. in a non-CO2 incubator. Glutamine oxidation was profiled by successive injections of 3 μM BPTES, an allosteric inhibitor of glutaminase (GLS1), and a mixture of 4 μM etomoxir, a carnitine palmitoyl-transferase 1A (CPT1A) inhibitor and 2 μM UK5099 a mitochondrial pyruvate carrier inhibitor, blocking fatty acid oxidation and […], respectively. The decrease in baseline OCR due to BPTES treatment was defined as the rate of glutaminolysis. Data are presented normalized to 10^6 cells as determined by Hoechst DNA content assay.

HepG2/C3A spheroids = assay: Offline glutamine uptake in bioreactor perfusate; conditions: 50 μM
Experimental: Glutamine concentration was determined using glutamine and glutamate determination kit (Sigma-Aldrich). Bioreactors containing HepG2/C3A spheroids were set up as described in the main text and perfused at 2 μl/min. Perfusate samples were collected for 60 minutes for a total of 120 μl per sample. Glutamine was quantified according to manufacturer directions.

[4] = 50 μM, after 6 hours of exposure
[5] = 50 μM, within the first 2 hours
[6] = surrogate of lactate production

Row | SMILES | exposure time after which the metabolic shift from oxidative phosphorylation to glycolysis occurred (HepG2/C3A cells [1]; 50 μM) [h] | total glucose uptake rate (HepG2/C3A cells [1]) [nmol/min/10^6] | lactate over glucose ratio (HepG2/C3A cells [1]; 50 μM, 6 hours after exposure) | additional drop in glucose uptake (HepG2/C3A cells [1]; [4]) [%] | change in lactate production (HepG2/C3A cells [1]; [4]) | lactate over glucose ratio (HepG2/C3A cells [1]; 50 μM, within 3 hours after exposure) | drop in glucose uptake (HepG2/C3A cells [1]; [5]) [%] | drop in lactate production (HepG2/C3A cells [1]; [5]) [%] | lactate over glucose ratio (HepG2/C3A cells [1]; gradual switch to compensatory mechanisms) | decrease in (mitochondrial) basal metabolic rate (HepG2/C3A cells [2]; static culture) | decrease in oxidative phosphorylation (HepG2/C3A cells [2]; static culture) | glycolytic capacity change (HepG2/C3A cells [2]; static culture) | decrease in maximal mitochondrial capacity (HepG2/C3A cells [2]; static culture) [%] | decrease in extracellular acidification rate (ECAR) (HepG2/C3A cells [2]; [6]) [%] | increase in glutamine oxidation rate (glutaminolysis) (HepG2/C3A cells [3]) [%] | increase in glutaminolysis (HepG2/C3A cells [3]) [folds] | glutamine uptake (outlet-inlet), in words (HepG2/C3A spheroids) | increase in glutamine consumption (offline measurement) (HepG2/C3A spheroids) [folds] | increase in lactate production (HepG2/C3A cells [1]; 50 μM, within 4 to 5 hours) [%] | increase in extracellular acidification rate (ECAR) (HepG2/C3A cells [2]; [6]) [%]
1 | C=C(C)[C@H]1Cc2c(ccc3c2O[C@@H]2COc4cc(OC)c(OC)cc4[C@@H]2C3=O)O1 [rotenone] | 3 | 1.0 | 6.1 | 65 | no change | 2.6 | 59 | 35 | above 2 | 83% and 83±5% | 85±5% and 85±8% | relatively unchanged | 87 | 21±12 | 382±115 | 4±1 | increase in glutamine uptake | 30±4 |  | 
2 | Cc1c(C)c2c(c(C)c1O)CCC(C)(COc1ccc(CC3SC(=O)NC3=O)cc1)O2 (centres unmarked) [troglitazone] |  | 2.5 | 1.8 |  |  |  |  |  |  | 20±6% |  |  | 22±9 |  | 26±30 |  |  | 5±2 | 51 | 43±43
